Test results from patent US10722520B2, “Heterocyclic compounds and their use in preventing or treating bacterial infections” (MUTABILIS, priority 2016, dated 2020).

Legend:
[1] = target: CMY-37 (Citrobacter freundii, UniProt P05193); conditions: read-out: IC50 β-lactamase CMY-37; class (C); nitrocefin 200 μM, 30-min pre-incubation, enzyme 0.2 nM
[2] = system: K. pneumoniae UFR24; experiment: MIC of ceftazidime (CAZ) at fixed concentration of compound (synergy), broth microdilution; assay type: cell-based; conditions: MIC of ceftazidime with compound fixed at 4 μg/mL; strain UFR24 (K. pneumoniae)
Procedure, shortened: (§1)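 Visual end point: lowest concentration that blocked growth. Conditions: cation-adjusted Mueller-Hinton broth, 5×10^5 cfu/mL final inoculum of log-phase bacteria, 16-20 h, 35° C, ambient atmosphere.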

[3] = system: E. coli UFR61O; experiment: as above; assay type: cell-based; conditions: MIC of ceftazidime with compound fixed at 4 μg/mL; strain UFR61O (E. coli)
Procedure, shortened: as §1

[4] = system: E. cloacae UFR70; experiment: as above; assay type: cell-based; conditions: MIC of ceftazidime with compound fixed at 4 μg/mL; strain UFR70 (E. cloacae)
Procedure, shortened: as §1

[5] = system: E. coli RGN238; experiment: as above; assay type: cell-based; conditions: MIC of ceftazidime with compound fixed at 4 μg/mL; strain RGN238 (E. coli)
Procedure, shortened: as §1

[6] = system: E. cloacae UFR51; experiment: as above; assay type: cell-based; conditions: MIC of ceftazidime with compound fixed at 4 μg/mL; strain UFR51 (E. cloacae)
Procedure, shortened: as §1

[7] = system: E. coli UFR39; experiment: as above; assay type: cell-based; conditions: MIC of ceftazidime with compound fixed at 4 μg/mL; strain UFR39 (E. coli)
Procedure, shortened: as §1

[8] = system: E. coli UFR74; experiment: as above; assay type: cell-based; conditions: MIC of ceftazidime with compound fixed at 4 μg/mL; strain UFR74 (E. coli)
Procedure, shortened: as §1

[9] = system: K. pneumoniae 6299; experiment: as above; assay type: cell-based; conditions: MIC of ceftazidime with compound fixed at 4 μg/mL; strain 6299 (K. pneumoniae)
Procedure, shortened: as §1

[10] = system: K. pneumoniae UFR68; experiment: as above; assay type: cell-based; conditions: MIC of ceftazidime with compound fixed at 4 μg/mL; strain UFR68 (K. pneumoniae)
Procedure, shortened: as §1

[11] = system: E. cloacae 260508; experiment: as above; assay type: cell-based; conditions: MIC of ceftazidime with compound fixed at 4 μg/mL; strain 260508 (E. cloacae)
Procedure, shortened: as §1

[12] = system: P. aeruginosa CIP107051; experiment: as above; assay type: cell-based; conditions: MIC of ceftazidime with compound fixed at 4 μg/mL; strain CIP107051 (P. aeruginosa)
Procedure, shortened: as §1

[13] = system: E. coli 131119; experiment: as above; assay type: cell-based; conditions: MIC of ceftazidime with compound fixed at 4 μg/mL; strain 131119 (E. coli)
Procedure, shortened: as §1

[14] = system: K. pneumoniae BAA-1898; experiment: as above; assay type: cell-based; conditions: MIC of ceftazidime with compound fixed at 4 μg/mL; strain BAA-1898 (K. pneumoniae)
Procedure, shortened: as §1

[15] = system: E. cloacae UFR85; experiment: as above; assay type: cell-based; conditions: MIC of ceftazidime with compound fixed at 4 μg/mL; strain UFR85 (E. cloacae)
Procedure, shortened: as §1

[16] = system: K. pneumoniae 160143; experiment: as above; assay type: cell-based; conditions: MIC of ceftazidime with compound fixed at 4 μg/mL; strain 160143 (K. pneumoniae)
Procedure, shortened: as §1

[17] = system: K. oxytoca UFR21; experiment: as above; assay type: cell-based; conditions: MIC of ceftazidime with compound fixed at 4 μg/mL; strain UFR21 (K. oxytoca)
Procedure, shortened: as §1

[18] = system: K. pneumoniae UFR77; experiment: as above; assay type: cell-based; conditions: MIC of ceftazidime with compound fixed at 4 μg/mL; strain UFR77 (K. pneumoniae)
Procedure, shortened: as §1

[19] = system: K. pneumoniae 200047; experiment: as above; assay type: cell-based; conditions: MIC of ceftazidime with compound fixed at 4 μg/mL; strain 200047 (K. pneumoniae)
Procedure, shortened: as §1

[20] = system: E. cloacae P99; experiment: as above; assay type: cell-based; conditions: MIC of ceftazidime with compound fixed at 4 μg/mL; strain P99 (E. cloacae)
Procedure, shortened: as §1

[21] = system: E. coli UFR32; experiment: as above; assay type: cell-based; conditions: MIC of ceftazidime with compound fixed at 4 μg/mL; strain UFR32 (E. coli)
Procedure, shortened: as §1

[22] = system: E. coli UFR18; experiment: as above; assay type: cell-based; conditions: MIC of ceftazidime with compound fixed at 4 μg/mL; strain UFR18 (E. coli)
Procedure, shortened: as §1

[23] = system: E. coli UFR41; experiment: as above; assay type: cell-based; conditions: MIC of ceftazidime with compound fixed at 4 μg/mL; strain UFR41 (E. coli)
Procedure, shortened: as §1

[24] = system: E. coli 190317; experiment: as above; assay type: cell-based; conditions: MIC of ceftazidime with compound fixed at 4 μg/mL; strain 190317 (E. coli)
Procedure, shortened: as §1

[25] = system: K. pneumoniae 6299; experiment: MIC of compound alone, broth microdilution; assay type: cell-based; conditions: Klebsiella pneumoniae, 6299, read-out: MIC compounds of the invention alone
Procedure, shortened: as §1

[26] = system: P. aeruginosa CIP107051; experiment: MIC of compound alone, broth microdilution; assay type: cell-based; conditions: Pseudomonas aeruginosa, CIP107051, read-out: MIC compounds of the invention alone
Procedure, shortened: as §1

CMY-37, sequence (P05193 21-381 limits assumed): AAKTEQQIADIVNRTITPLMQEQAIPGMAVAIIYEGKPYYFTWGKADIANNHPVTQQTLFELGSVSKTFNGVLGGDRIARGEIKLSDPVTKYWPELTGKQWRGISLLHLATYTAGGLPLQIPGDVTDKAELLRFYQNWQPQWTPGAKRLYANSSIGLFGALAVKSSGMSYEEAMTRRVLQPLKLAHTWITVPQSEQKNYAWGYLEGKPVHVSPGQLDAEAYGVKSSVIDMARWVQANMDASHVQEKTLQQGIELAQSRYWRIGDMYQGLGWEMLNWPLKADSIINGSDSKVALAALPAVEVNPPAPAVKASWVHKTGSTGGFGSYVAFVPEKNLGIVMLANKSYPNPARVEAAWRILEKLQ

## O=C1N2CC(n3cccn3)=CC(C2)N1OC(F)(F)C(=O)[O-].[Li+] (centres unmarked) [Example 4, lithium difluoro-(7-oxo-3-pyrazol-1-yl-1,6-diaza-bicyclo[3.2.1]oct-3-en-6-yloxy)-acetate]
[1]
  IC50: 150 nM
[2]
  MIC combination of CAZ and compounds of the invention at 4 μg/mL: 0.5
[3]
  MIC combination of CAZ and compounds of the invention at 4 μg/mL: <0.25
[4]
  MIC combination of CAZ and compounds of the invention at 4 μg/mL: <0.25
[5]
  MIC combination of CAZ and compounds of the invention at 4 μg/mL: <0.25
[6]
  MIC combination of CAZ and compounds of the invention at 4 μg/mL: <0.25
[7]
  MIC combination of CAZ and compounds of the invention at 4 μg/mL: <0.25
[8]
  MIC combination of CAZ and compounds of the invention at 4 μg/mL: <0.25
[9]
  MIC combination of CAZ and compounds of the invention at 4 μg/mL: ≤0.25
[10]
  MIC combination of CAZ and compounds of the invention at 4 μg/mL: 4
[11]
  MIC combination of CAZ and compounds of the invention at 4 μg/mL: ≤0.25
[12]
  MIC combination of CAZ and compounds of the invention at 4 μg/mL: 4
[13]
  MIC combination of CAZ and compounds of the invention at 4 μg/mL: <0.25
[14]
  MIC combination of CAZ and compounds of the invention at 4 μg/mL: 0.5
[15]
  MIC combination of CAZ and compounds of the invention at 4 μg/mL: 1
[16]
  MIC combination of CAZ and compounds of the invention at 4 μg/mL: <0.25
[17]
  MIC combination of CAZ and compounds of the invention at 4 μg/mL: 4
[18]
  MIC combination of CAZ and compounds of the invention at 4 μg/mL: <0.25
[19]
  MIC combination of CAZ and compounds of the invention at 4 μg/mL: <0.25
[20]
  MIC combination of CAZ and compounds of the invention at 4 μg/mL: ≤0.25
[21]
  MIC combination of CAZ and compounds of the invention at 4 μg/mL: <0.25
[22]
  MIC combination of CAZ and compounds of the invention at 4 μg/mL: <0.25
[23]
  MIC combination of CAZ and compounds of the invention at 4 μg/mL: <0.25
[24]
  MIC combination of CAZ and compounds of the invention at 4 μg/mL: <0.25
[25]
  MIC: 16 µg/mL
[26]
  MIC: > 32 µg/mL
